Measurements reported in paper PMC11871066, “Structure-based discovery of hydrocarbon-stapled paxillin peptides that block FAK scaffolding in cancer” (Nature Communications, 2025).

Assay: Liver microsomal stability
Conditions: human liver microsomes

Q: For `CCCCCCCCCCCCCC(=O)N[C@@H](CC(N)=O)C(=O)N[C@@H](CC(C)C)C(=O)N[C@]1(C)CCCCCCC=CCCC[C@@](C)(C(=O)N[C@@H](CCC(=O)O)C(=O)N[C@@H](CC(C)C)C(=O)N[C@@H](CC(N)=O)C(N)=O)NC(=O)[C@H](CC(C)C)NC(=O)[C@H](CC(C)C)NC(=O)[C@H](CCCNC(=N)N)NC(=O)[C@H](CC(=O)O)NC(=O)[C@H](CC(C)C)NC(=O)[C@H](CCC(=O)O)NC1=O` [compound 2012], which “remaining in liver microsomes” value (0 min, Rep1) is on record?
A: 98

Q: And the “remaining in liver microsomes” value (0 min, Rep2)?
A: 102

Q: And the “remaining in liver microsomes” value (5 min, Rep1)?
A: 98

Q: And the “remaining in liver microsomes” value (5 min, Rep2)?
A: 94

Q: And the “remaining in liver microsomes” value (15 min, Rep1)?
A: 100

Q: And the “remaining in liver microsomes” value (15 min, Rep2)?
A: 98

Q: And the “remaining in liver microsomes” value (30 min, Rep1)?
A: 100

Q: What about the “remaining in liver microsomes” value (30 min, Rep2) of the same compound?
A: 101

Q: What about the “remaining in liver microsomes” value (60 min, Rep1) of the same compound?
A: 97

Q: And the “remaining in liver microsomes” value (60 min, Rep2)?
A: 94
